Among the data in ChEMBL document CHEMBL1130865, “Carbaxylosides of 4-ethyl-2-oxo-2H-benzopyran-7-yl as non-hydrolyzable, orally active venous antithrombotic agents” (1998) are Activity values, retold here.

Experiment [1] relates to Rattus norvegicus. The experiment is described as follows: Antithrombotic activity was determined in rat upon oral administration at dose 3 mg/kg (4 hours before). The experiment is classed as functional.
For experiment [2], the system named is Rattus norvegicus. The experiment is described as follows: Antithrombotic activity was determined in rat upon oral administration at dose 20 mg/kg (4 hours before). The experiment is classed as functional.

Molecule `CCc1cc(=O)oc2cc(OC3OCC(O)[C@H](O)[C@H]3O)ccc12` (some centres undefined) yielded an Activity in the experiment on Rattus norvegicus [1] of 71%. For the molecule `CCc1cc(=O)oc2cc(OC3CCC(O)C(O)C3O)ccc12` (single isomer, unassigned; (-)), in the experiment with Rattus norvegicus [2], the Activity was found to be 96%. `CCc1cc(=O)oc2cc(OC3SCC(O)[C@H](O)[C@H]3O)ccc12` (some centres undefined): the Activity with Rattus norvegicus [1] was determined as 71%.

As to `CCc1cc(=O)oc2cc(OC3CCC(O)[C@H](O)[C@H]3O)ccc12` (some centres undefined), the Activity in the experiment on Rattus norvegicus [2] is recorded as 20%.
